Source: ChEMBL document CHEMBL1157496, “Design, synthesis, and evaluation of a novel 4-aminomethyl-4-fluoropiperidine as a T-type Ca2+ channel antagonist” (J Med Chem, 2008)
Each block holds one molecule with its values, some of them ahead of it.

Columns and labels:
[1] = target: Voltage-dependent T-type calcium channel subunit alpha-1I (Homo sapiens) (UniProt Q9P0X4); test: Antagonist activity at T type calcium channel Cav3.3 alpha1i at -60 mV by FLIPR assay; assay type: functional
[2] = Antagonist activity at sigma receptor in guinea pig vas deferens at 30 uM; assay type: functional, Cavia porcellus; parameters: scale not given: the % may be the effect or the level left
[3] = Half life in dog at 0.5 mg/kg, iv; assay type: ADME, organism-based, Canis lupus familiaris; parameters: dose 0.5 mg/kg, route intravenous; conditions: in vivo
[4] = species on record: Rattus norvegicus; test: Decrease in seizure time in Wistar albino Glaxo rat model of absence epilepsy after 4 hrs; assay type: functional
[5] = Protein binding in rat plasma; assay type: ADME, cell-free; conditions: read-out: PPB (converted)
[6] = Protein binding in dog plasma; assay type: ADME, cell-free, Canis lupus familiaris; conditions: read-out: PPB
[7] = test system: Canis familiaris; test: Toxicity in dog assessed as increase in heart rate at 20 mg/kg, po after 3 hrs; assay type: organism-based, Canis lupus familiaris; parameters: dose 20 mg/kg, route oral; conditions: in vivo
[8] = test system: Canis familiaris; test: Toxicity in dog assessed as effect on ECG intervals at 20 mg/kg, po after 3 hrs; assay type: organism-based, Canis lupus familiaris; parameters: dose 20 mg/kg, route oral; conditions: in vivo
[9] = Cmax in dog at 1 mg/kg, po; assay type: ADME, organism-based, Canis lupus familiaris; parameters: dose 1 mg/kg, route oral; conditions: in vivo
[10] = Oral bioavailability in rat at 10 mg/kg; assay type: ADME, organism-based; conditions: in vivo
[11] = Half life in monkey at 0.5 mg/kg, iv; assay type: ADME, organism-based, Macaca mulatta; parameters: dose 0.5 mg/kg, route intravenous; conditions: rhesus monkey, in vivo
[12] = Oral bioavailability in monkey at 2 mg/kg; assay type: ADME, organism-based, Macaca mulatta; conditions: rhesus monkey, in vivo
[13] = Cmax in Wistar albino Glaxo rat model of absence epilepsy at 10 mg/kg; assay type: ADME, organism-based; parameters: dose 10 mg/kg; conditions: in vivo
[14] = Cmax in Wistar albino Glaxo rat model of absence epilepsy at 3 mg/kg; assay type: ADME, organism-based; parameters: dose 3 mg/kg; conditions: in vivo
[15] = test system: Canis familiaris; test: Drug level in dog plasma at 20 mg/kg, po; assay type: ADME, organism-based, Canis lupus familiaris; parameters: dose 20 mg/kg, route oral; conditions: in vivo, read-out: Drug uptake
[16] = Tmax in monkey at 2 mg/kg, po; assay type: ADME, organism-based, Macaca mulatta; parameters: dose 2 mg/kg, route oral; conditions: rhesus monkey, in vivo
[17] = Ratio of drug level in cerebrospinal fluid to plasma in rat after 9 hrs; assay type: ADME, CSF/Plasma
[18] = Half life in rat at 1 mg/kg, iv; assay type: ADME, organism-based; parameters: dose 1 mg/kg, route intravenous; conditions: in vivo
[19] = Oral bioavailability in dog at 1 mg/kg; assay type: ADME, organism-based, Canis lupus familiaris; conditions: in vivo
[20] = target: Sodium channel protein type 5 subunit alpha (Homo sapiens, UniProt Q14524); test: Inhibition of sodium channel Nav1.5 by voltage-clamp method
[21] = test system: Canis familiaris; test: Toxicity in dog assessed as effect on blood pressure at 20 mg/kg, po after 3 hrs; assay type: organism-based, Canis lupus familiaris; parameters: dose 20 mg/kg, route oral; conditions: in vivo
[22] = Inhibition of sodium channel site 2 by binding assay
[23] = Volume of distribution at steady state in rat at 1 mg/kg, iv; assay type: ADME, organism-based; parameters: dose 1 mg/kg, route intravenous; conditions: in vivo, read-out: Vdss
[24] = Protein binding in monkey plasma; assay type: ADME, cell-free, Macaca mulatta; conditions: rhesus monkey, read-out: PPB (converted)
[25] = AUC (0 to 24 hrs) in dog at 1 mg/kg, po; assay type: ADME, organism-based, Canis lupus familiaris; parameters: time < 24 hr, dose 1 mg/kg, route oral; conditions: plasma
[26] = AUC (0 to 24 hrs) in rat at 10 mg/kg, po; assay type: ADME, organism-based; parameters: time < 24 hr, dose 10 mg/kg, route oral; conditions: plasma
[27] = Cmax in Wistar albino Glaxo rat model of absence epilepsy at 1 mg/kg; assay type: ADME, organism-based; parameters: dose 1 mg/kg; conditions: in vivo
[28] = target: Voltage-dependent T-type calcium channel subunit alpha-1G (Homo sapiens) (UniProt O43497); test: Antagonist activity at T type calcium channel Cav3.1 alpha-1G at -100 mV by voltage-clamp electrophysiology assay; assay type: functional
[29] = AUC (0 to 24 hrs) in monkey at 2 mg/kg, po; assay type: ADME, organism-based, Macaca mulatta; parameters: time < 24 hr, dose 2 mg/kg, route oral; conditions: rhesus monkey, plasma
[30] = Cmax in rat at 10 mg/kg, po; assay type: ADME, organism-based; parameters: dose 10 mg/kg, route oral; conditions: in vivo
[31] = test system: Canis familiaris; test: Toxicity in dog assessed as effect on renal plasma flow at 20 mg/kg, po after 3 hrs; assay type: organism-based, Canis lupus familiaris; parameters: dose 20 mg/kg, route oral; conditions: in vivo
[32] = Clearance in monkey at 0.5 mg/kg, iv; assay type: ADME, organism-based, Macaca mulatta; parameters: dose 0.5 mg/kg, route intravenous; conditions: rhesus monkey, in vivo
[33] = Tmax in rat at 10 mg/kg, po; assay type: ADME, organism-based; parameters: dose 10 mg/kg, route oral; conditions: in vivo
[34] = Volume of distribution at steady state in monkey at 0.5 mg/kg, iv; assay type: ADME, organism-based, Macaca mulatta; parameters: dose 0.5 mg/kg, route intravenous; conditions: rhesus monkey, in vivo, read-out: Vdss
[35] = target: Voltage-dependent T-type calcium channel subunit alpha-1H (Homo sapiens) (UniProt O95180); test: Antagonist activity at T type calcium channel Cav3.2 alpha-1H at -100 mV by voltage-clamp electrophysiology assay; assay type: functional
Chain of Voltage-dependent T-type calcium channel subunit alpha-1H (Homo sapiens) (O95180 whole entry): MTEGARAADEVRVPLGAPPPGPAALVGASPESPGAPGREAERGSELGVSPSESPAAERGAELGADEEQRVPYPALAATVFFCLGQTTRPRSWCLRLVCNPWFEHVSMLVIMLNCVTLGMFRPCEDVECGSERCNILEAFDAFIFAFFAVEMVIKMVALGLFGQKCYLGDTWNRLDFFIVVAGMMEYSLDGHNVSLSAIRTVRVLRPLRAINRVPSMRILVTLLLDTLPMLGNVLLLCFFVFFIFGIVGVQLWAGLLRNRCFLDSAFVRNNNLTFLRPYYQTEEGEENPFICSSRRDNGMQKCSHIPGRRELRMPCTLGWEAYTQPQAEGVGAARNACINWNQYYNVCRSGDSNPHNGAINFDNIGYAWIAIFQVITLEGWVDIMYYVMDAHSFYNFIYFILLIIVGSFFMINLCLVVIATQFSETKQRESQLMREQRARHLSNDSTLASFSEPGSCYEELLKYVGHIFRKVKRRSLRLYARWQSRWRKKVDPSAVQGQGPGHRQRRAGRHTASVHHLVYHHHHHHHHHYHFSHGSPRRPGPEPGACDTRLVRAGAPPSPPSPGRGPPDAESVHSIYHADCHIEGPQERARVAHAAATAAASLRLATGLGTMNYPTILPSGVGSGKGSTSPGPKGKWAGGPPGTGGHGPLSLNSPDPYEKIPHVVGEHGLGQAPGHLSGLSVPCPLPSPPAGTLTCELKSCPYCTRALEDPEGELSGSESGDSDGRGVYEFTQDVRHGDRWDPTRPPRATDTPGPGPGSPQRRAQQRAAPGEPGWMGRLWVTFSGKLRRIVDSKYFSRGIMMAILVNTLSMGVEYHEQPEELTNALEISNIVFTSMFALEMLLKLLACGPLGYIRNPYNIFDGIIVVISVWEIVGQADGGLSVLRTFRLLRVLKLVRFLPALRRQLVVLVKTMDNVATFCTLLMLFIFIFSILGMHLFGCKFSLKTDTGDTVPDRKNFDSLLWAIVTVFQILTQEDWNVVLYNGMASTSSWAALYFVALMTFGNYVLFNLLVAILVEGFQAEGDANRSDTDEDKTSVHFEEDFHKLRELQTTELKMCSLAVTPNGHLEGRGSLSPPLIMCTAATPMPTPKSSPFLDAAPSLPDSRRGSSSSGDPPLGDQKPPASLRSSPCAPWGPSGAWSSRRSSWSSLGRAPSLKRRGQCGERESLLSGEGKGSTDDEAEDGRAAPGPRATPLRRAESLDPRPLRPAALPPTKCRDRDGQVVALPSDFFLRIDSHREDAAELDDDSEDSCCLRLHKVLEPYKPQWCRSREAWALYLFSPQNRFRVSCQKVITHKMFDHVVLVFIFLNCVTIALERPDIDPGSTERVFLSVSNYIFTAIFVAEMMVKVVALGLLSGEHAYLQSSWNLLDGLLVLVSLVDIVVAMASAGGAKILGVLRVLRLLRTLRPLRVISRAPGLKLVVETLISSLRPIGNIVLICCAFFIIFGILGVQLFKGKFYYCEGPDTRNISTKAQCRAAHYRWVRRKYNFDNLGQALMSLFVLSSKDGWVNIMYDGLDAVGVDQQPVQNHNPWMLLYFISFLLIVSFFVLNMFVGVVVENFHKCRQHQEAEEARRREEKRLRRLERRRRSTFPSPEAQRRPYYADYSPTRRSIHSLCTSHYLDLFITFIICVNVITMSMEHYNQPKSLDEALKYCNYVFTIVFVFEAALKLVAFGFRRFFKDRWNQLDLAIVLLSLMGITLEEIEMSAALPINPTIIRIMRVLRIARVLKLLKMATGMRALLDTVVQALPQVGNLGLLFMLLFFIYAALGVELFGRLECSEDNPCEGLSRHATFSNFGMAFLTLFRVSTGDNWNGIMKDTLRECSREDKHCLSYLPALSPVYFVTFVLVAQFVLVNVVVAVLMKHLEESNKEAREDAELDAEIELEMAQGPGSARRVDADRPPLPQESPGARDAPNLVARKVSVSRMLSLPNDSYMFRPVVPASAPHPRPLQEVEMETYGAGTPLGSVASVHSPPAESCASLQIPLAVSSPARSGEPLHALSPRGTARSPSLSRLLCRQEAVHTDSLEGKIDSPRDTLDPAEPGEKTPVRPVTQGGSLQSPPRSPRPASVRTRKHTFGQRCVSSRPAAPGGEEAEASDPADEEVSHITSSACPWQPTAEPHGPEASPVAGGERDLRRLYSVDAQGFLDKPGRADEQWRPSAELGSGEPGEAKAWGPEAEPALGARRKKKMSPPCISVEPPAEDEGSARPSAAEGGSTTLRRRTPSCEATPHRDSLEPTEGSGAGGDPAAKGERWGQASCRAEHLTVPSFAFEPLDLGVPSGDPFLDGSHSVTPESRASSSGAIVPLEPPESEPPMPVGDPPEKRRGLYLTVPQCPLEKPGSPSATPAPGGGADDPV

[36] = Tmax in dog at 1 mg/kg, po; assay type: ADME, organism-based, Canis lupus familiaris; parameters: dose 1 mg/kg, route oral; conditions: in vivo
[37] = Clearance in dog at 0.5 mg/kg, iv; assay type: ADME, organism-based, Canis lupus familiaris; parameters: dose 0.5 mg/kg, route intravenous; conditions: in vivo
[38] = Ratio of drug level in brain to plasma in rat after 9 hrs; assay type: ADME, cell-free
[39] = Clearance in rat at 1 mg/kg, iv; assay type: ADME, organism-based; parameters: dose 1 mg/kg, route intravenous; conditions: in vivo
[40] = target: Voltage-dependent N-type calcium channel subunit alpha-1B (Homo sapiens) (UniProt Q00975); test: Inhibition of calcium channel Cav2.2 at 10 uM by high throughput assay
[41] = Antagonist activity at T type calcium channel at -80 mV by voltage-clamp electrophysiology assay; assay type: functional
[42] = test system: Canis familiaris; test: Toxicity in dog assessed as effect on plasma electrolytes at 20 mg/kg, po after 3 hrs; assay type: organism-based, Canis lupus familiaris; parameters: dose 20 mg/kg, route oral; conditions: in vivo
[43] = Antagonist activity at T type calcium channel at -100 mV by voltage-clamp electrophysiology assay; assay type: functional
[44] = Binding affinity to sigma receptor
[45] = Cmax in monkey at 2 mg/kg, po; assay type: ADME, organism-based, Macaca mulatta; parameters: dose 2 mg/kg, route oral; conditions: rhesus monkey, in vivo
[46] = AUC (0 to 4 hrs) in Wistar albino Glaxo rat model of absence epilepsy at 10 mg/kg; assay type: ADME, organism-based; parameters: time < 4 hr, dose 10 mg/kg; conditions: in vivo
[47] = species on record: Rattus norvegicus; test: Decrease in tremor activity in harmaline-induced rat model; assay type: functional, organism-based
[48] = target: Voltage-dependent T-type calcium channel subunit alpha-1I (Homo sapiens) (UniProt Q9P0X4); test: Antagonist activity at T type calcium channel Cav3.3 alpha1i at -20 mV by FLIPR assay; assay type: functional
[49] = test system: Canis familiaris; test: Toxicity in dog assessed as effect on glomerular filtration at 20 mg/kg, po after 3 hrs; assay type: organism-based, Canis lupus familiaris; parameters: dose 20 mg/kg, route oral; conditions: in vivo
[50] = test system: Canis familiaris; test: Toxicity in dog assessed as effect on urinary excretion of sodium and potassium at 20 mg/kg, po after 3 hrs; assay type: organism-based, Canis lupus familiaris, Urine; parameters: dose 20 mg/kg, route oral; conditions: in vivo
[51] = Volume of distribution at steady state in dog at 0.5 mg/kg, iv; assay type: ADME, organism-based, Canis lupus familiaris; parameters: dose 0.5 mg/kg, route intravenous; conditions: in vivo, read-out: Vdss
[52] = Drug level in dog plasma at 4.30 mg/kg, iv measured at end of 60 mins infusion; assay type: ADME, organism-based, Canis lupus familiaris; parameters: dose 4.3 mg/kg, route intravenous; conditions: 4.3 mg/kg, read-out: Drug uptake
[53] = Drug level in dog plasma at 1.29 mg/kg, iv measured at end of 60 mins infusion; assay type: ADME, organism-based, Canis lupus familiaris; parameters: dose 1.29 mg/kg, route intravenous; conditions: read-out: Drug uptake
[54] = AUC (0 to 4 hrs) in Wistar albino Glaxo rat model of absence epilepsy at 1 mg/kg; assay type: ADME, organism-based; parameters: time < 4 hr, dose 1 mg/kg; conditions: in vivo
[55] = test system: Canis familiaris; test: Toxicity in dog assessed as effect on urine flow at 20 mg/kg, po after 3 hrs; assay type: organism-based, Canis lupus familiaris; parameters: dose 20 mg/kg, route oral; conditions: in vivo
[56] = AUC (0 to 4 hrs) in Wistar albino Glaxo rat model of absence epilepsy at 3 mg/kg; assay type: ADME, organism-based; parameters: time < 4 hr, dose 3 mg/kg; conditions: in vivo
[57] = target: Voltage-gated inwardly rectifying potassium channel KCNH2 (Homo sapiens, UniProt Q12809)
[58] = Binding affinity to L type calcium channel by binding assay

Chain of Voltage-dependent T-type calcium channel subunit alpha-1I (Homo sapiens) (Q9P0X4 whole entry): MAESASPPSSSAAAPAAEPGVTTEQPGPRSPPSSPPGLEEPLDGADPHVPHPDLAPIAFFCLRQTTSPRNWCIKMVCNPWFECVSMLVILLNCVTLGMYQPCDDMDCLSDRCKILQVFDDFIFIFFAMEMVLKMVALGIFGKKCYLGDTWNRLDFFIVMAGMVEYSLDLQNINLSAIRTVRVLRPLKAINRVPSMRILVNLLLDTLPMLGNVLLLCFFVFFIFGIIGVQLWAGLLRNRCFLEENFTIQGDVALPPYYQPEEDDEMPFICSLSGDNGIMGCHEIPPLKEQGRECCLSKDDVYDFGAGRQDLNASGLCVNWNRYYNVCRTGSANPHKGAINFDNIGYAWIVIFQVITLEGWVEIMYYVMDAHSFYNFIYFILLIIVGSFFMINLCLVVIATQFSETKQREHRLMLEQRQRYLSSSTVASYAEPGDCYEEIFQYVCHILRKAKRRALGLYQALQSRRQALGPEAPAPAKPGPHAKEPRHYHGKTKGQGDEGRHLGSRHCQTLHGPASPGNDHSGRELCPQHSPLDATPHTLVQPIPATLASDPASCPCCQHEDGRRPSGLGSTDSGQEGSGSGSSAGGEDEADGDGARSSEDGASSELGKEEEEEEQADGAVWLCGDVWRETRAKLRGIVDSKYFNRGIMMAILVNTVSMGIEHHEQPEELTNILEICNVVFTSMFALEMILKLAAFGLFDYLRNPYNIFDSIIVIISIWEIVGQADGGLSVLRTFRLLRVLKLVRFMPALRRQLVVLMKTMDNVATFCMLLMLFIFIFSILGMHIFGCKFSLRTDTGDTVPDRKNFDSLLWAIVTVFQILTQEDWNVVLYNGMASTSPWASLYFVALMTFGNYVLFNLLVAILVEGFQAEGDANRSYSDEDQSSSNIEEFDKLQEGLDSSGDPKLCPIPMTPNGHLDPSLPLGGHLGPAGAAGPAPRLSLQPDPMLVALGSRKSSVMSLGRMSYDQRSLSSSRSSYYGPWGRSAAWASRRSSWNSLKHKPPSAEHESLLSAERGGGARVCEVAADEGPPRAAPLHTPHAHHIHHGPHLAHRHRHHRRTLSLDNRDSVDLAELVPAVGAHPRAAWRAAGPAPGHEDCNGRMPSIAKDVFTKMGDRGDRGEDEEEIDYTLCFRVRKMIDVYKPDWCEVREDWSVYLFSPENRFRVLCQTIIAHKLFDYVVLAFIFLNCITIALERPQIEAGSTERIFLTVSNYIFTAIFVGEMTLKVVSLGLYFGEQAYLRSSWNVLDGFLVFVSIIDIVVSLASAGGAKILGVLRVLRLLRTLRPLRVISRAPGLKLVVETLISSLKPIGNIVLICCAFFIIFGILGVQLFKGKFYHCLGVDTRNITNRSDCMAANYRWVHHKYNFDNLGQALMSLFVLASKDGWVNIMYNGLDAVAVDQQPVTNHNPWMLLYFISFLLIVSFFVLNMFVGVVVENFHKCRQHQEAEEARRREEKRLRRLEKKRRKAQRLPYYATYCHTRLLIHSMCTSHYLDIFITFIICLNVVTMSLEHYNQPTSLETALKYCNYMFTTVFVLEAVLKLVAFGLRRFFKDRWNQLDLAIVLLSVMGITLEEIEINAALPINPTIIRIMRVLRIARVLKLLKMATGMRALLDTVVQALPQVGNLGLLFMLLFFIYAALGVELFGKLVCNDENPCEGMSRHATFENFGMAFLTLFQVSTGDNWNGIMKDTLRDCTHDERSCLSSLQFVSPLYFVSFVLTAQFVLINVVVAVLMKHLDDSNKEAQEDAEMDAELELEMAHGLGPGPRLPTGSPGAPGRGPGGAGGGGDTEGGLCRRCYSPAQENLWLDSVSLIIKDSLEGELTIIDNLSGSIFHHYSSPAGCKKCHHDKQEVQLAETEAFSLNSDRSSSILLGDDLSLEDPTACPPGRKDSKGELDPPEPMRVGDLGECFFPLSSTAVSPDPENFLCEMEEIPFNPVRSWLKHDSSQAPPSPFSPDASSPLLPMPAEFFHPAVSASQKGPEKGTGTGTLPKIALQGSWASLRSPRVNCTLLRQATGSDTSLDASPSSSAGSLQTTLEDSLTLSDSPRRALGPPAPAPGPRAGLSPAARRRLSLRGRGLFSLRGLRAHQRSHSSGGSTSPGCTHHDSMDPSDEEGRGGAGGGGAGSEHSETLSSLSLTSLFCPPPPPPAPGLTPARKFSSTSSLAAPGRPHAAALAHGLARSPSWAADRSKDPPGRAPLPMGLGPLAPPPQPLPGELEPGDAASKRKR

Activity [1]: 98 nM
Structure (SMILES): CC(C)(C)CCN1CCC(CNC(=O)c2cc(Cl)cc(Cl)c2)CC1

half-life [3]: 4.7 h
fraction unbound [5]: 0.057
fraction unbound [6]: 0.01
Cmax [9]: 2180 nM
bioavailability [10]: 36%
half-life [11]: 3.3 h
bioavailability [12]: 44%
Cmax [13]: 1000 nM
Cmax [14]: 190 nM
concentration [15]: 34500 nM
Tmax [16]: 1.5 h
Kp at 9 h [17]: 2.8
half-life [18]: 1.8 h
bioavailability [19]: 87%
IC50 [22]: 1900 nM
Vd [23]: 10 L/kg
fraction unbound [24]: 0.025
AUC(0-t) at 24 h [25]: 15.8 µM·h
AUC(0-t) at 24 h [26]: 1.94 µM·h
Cmax [27]: 60 nM
Activity [28]: 93 nM
AUC(0-t) at 24 h [29]: 3.2 µM·h
Cmax [30]: 480 nM
clearance [32]: 13.6 mL/min/kg
Tmax [33]: 0.7 h
Vd [34]: 3.8 L/kg
Activity [35]: 196 nM
Tmax [36]: 3.1 h
clearance [37]: 2.3 mL/min/kg
Kp at 9 h [38]: 6
clearance [39]: 75 mL/min/kg
inhibition [40]: 18%
Ki [44]: < 100 nM
Cmax [45]: 580 nM
AUC(0-t) at 4 h [46]: 2.96 µM·h
Activity [48]: 84 nM
Vd [51]: 1 L/kg
concentration at 1 h [52]: 4600 nM
concentration at 1 h [53]: 1500 nM
AUC(0-t) at 4 h [54]: 0.15 µM·h
Activity [1]: 181 nM
AUC(0-t) at 4 h [56]: 0.54 µM·h
Structure (SMILES): CC1(C)C[C@@H](CN2CCC(F)(CNC(=O)c3cc(Cl)cc(Cl)c3)CC2)CCO1
Activity [2]: 30%
inhibition (INH) [4]: 81%
Activity [7]: Toxic
Activity [8]: Non-toxic
IC50 [20]: 84000 nM
Activity [21]: Non-toxic
Activity [31]: Non-toxic
Activity [41]: 115 nM
Activity [42]: Non-toxic
Activity [43]: 84 nM
Activity [47]: Dose-dependent effect
Activity [49]: Non-toxic
Activity [50]: Non-toxic
Activity [55]: Non-toxic

Activity [48]: 94 nM
Activity [1]: 297 nM
Structure (SMILES): CC1(C)C[C@H](CN2CCC(F)(CNC(=O)c3cc(Cl)cc(Cl)c3)CC2)CCO1
inhibition (INH) [4]: 63%

Activity [48]: 145 nM
Activity [1]: 333 nM
Structure (SMILES): CC1(C)CC(CN2CCC(F)(CNC(=O)c3cc(Cl)cc(Cl)c3)CC2)CCO1 (racemic)

IC50 [58]: 940 nM
Activity [48]: 66 nM
Activity [1]: 64 nM
Structure (SMILES): CC(C)(C)CCN1CCC(F)(CNC(=O)c2cc(Cl)cc(Cl)c2)CC1
IC50 [57]: 2220 nM
